Assay results taken from patent US20230257354A1, “NOVEL HETEROCYCLIC COMPOUNDS” (Hoffmann-La Roche Inc., priority 2020, published 2023).

Tested on: Acinetobacter baumannii ATCC17978
Assay: Antimicrobial susceptibility testing, 90% growth inhibitory concentration (IC90) determination, ATCC17978
Format: cell-based
Details: Iso-Sensitest broth, OD 600 nm over 16 h, 35±2° C., read-out: ATCC 17978 IC90
Method: Antimicrobial Susceptibility Testing: 90% Growth Inhibitory Concentration (IC90) Determination The in vitro antimicrobial activity of the compounds was determined according to the following procedure: The assay used a 10-points Iso-Sensitest broth medium to measure quantitatively the in vitro activity of the compounds against Acinetobacter baumannii ATCC17978 or ATCC17961. Stock compounds in DMSO were serially twofold diluted (e.g. range from 50 to 0.097 μM final concentration) in 384 wells microtiter plates and inoculated with 49 μl the bacterial suspension in Iso-Sensitest medium to have a final cell concentration of ˜5×10^(5) CFU/ml in a final volume/well of 50 ul/well. Microtiter plates were incubated at 35±2° C. Bacterial cell growth was determined with the measurement of optical density at X=600 nm each 20 minutes over a time course of 16 h. Growth inhibition was calculated during the logarithmic growth of the bacterial cells with determination of the concentration inhibiting 50% (IC50) and 90% (IC90) of the growth. Table 1 provides the 90% growth inhibitory concentrations (IC90) in micromoles per liter of the compounds of present invention obtained against the strain Acinetobacter baumannii ATCC17978.

Row | SMILES | IC90 [nM]
1 | COc1ccc(-c2cnc(C(=O)Nc3ccc(C(=O)NCCCCCN(C)C)c(Cl)c3)n2C)c(F)c1F [Example A26, N-[3-chloro-4-[5-(dimethylamino)pentylcarbamoyl]phenyl]-5-(2,3-difluoro-4-methoxy-phenyl)-1-methyl-imidazole-2-carboxamide] | 200
2 | CC(C)CCOCCNC(=O)c1ccc(NC(=O)c2ncc(-c3ccc(OCC#N)c(F)c3F)n2C)cc1Cl [Example A27, N-[3-chloro-4-(2-isopentyloxyethylcarbamoyl)phenyl]-5-[4-(cyanomethoxy)-2,3-difluoro-phenyl]-1-methyl-imidazole-2-carboxamide;formic acid] | 240
3 | COc1ccc(-c2cnc(C(=O)Nc3ccc(C(=O)NCCN4CCC(O)C4)c(Cl)c3)n2C)c(F)c1F (stereo not drawn) [Example A28, N-[3-chloro-4-[2-(3-hydroxypyrrolidin-1-yl)ethylcarbamoyl]phenyl]-5-(2,3-difluoro-4-methoxy-phenyl)-1-methyl-imidazole-2-carboxamide] | 1200
4 | CCc1cc(NC(=O)c2ncc(-c3ccc(OC)c(F)c3F)n2C)ccc1C(=O)NCCCOCCN(C)C [Example A30, 5-(2,3-difluoro-4-methoxy-phenyl)-N-[4-[3-[2-(dimethylamino)ethoxy]propylcarbamoyl]-3-ethyl-phenyl]-1-methyl-imidazole-2-carboxamide] | 250
5 | COc1ccc(-c2cnc(C(=O)Nc3ccc(C(=O)NC4CCN(C(=O)C5CCNCC5)C4)c(Cl)c3)n2C)c(F)c1F (stereo not drawn) [Example B1, N-[3-Chloro-4-[[1-(piperidine-4-carbonyl)pyrrolidin-3-yl]carbamoyl]phenyl]-5-(2,3-difluoro-4-methoxy-phenyl)-1-methyl-imidazole-2-carboxamide; formic acid] | 110
6 | COc1ccc(-c2cnc(C(=O)Nc3ccc(C(=O)NC4CCN(C(=O)[C@@H]5CCNC5)C4)c(Cl)c3)n2C)c(F)c1F (stereo partly drawn) [Example B2, N-[3-chloro-4-[[1-[(3R)-pyrrolidine-3-carbonyl]pyrrolidin-3-yl]carbamoyl]phenyl]-5-(2,3-difluoro-4-methoxy-phenyl)-1-methyl-imidazole-2-carboxamide;formic acid] | 130
7 | COc1ccc(-c2cnc(C(=O)Nc3ccc(C(=O)NC4CCN(C(=O)[C@@H]5C[C@@H](O)CN5)C4)c(Cl)c3)n2C)c(F)c1F (stereo partly drawn) [Example B3, N-[3-chloro-4-[[1-[(2S,4R)-4-hydroxypyrrolidine-2-carbonyl]pyrrolidin-3-yl]carbamoyl]phenyl]-5-(2,3-difluoro-4-methoxy-phenyl)-1-methyl-imidazole-2-carboxamide;formic acid] | 280
8 | COc1ccc(-c2cnc(C(=O)Nc3ccc(C(=O)NC4CCN(C(=O)CCOCCN)C4)c(Cl)c3)n2C)c(F)c1F (stereo not drawn) [Example B4, N-[4-[[1-[3-(2-aminoethoxy)propanoyl]pyrrolidin-3-yl]carbamoyl]-3-chloro-phenyl]-5-(2,3-difluoro-4-methoxy-phenyl)-1-methyl-imidazole-2-carboxamide;formic acid] | 200
9 | COc1ccc(-c2cnc(C(=O)Nc3ccc(C(=O)NC4CCN(C(=O)C5CCNCC5)CC4)c(Cl)c3)n2C)c(F)c1F [Example B5, N-[3-chloro-4-[[1-(piperidine-4-carbonyl)-4-piperidyl]carbamoyl]phenyl]-5-(2,3-difluoro-4-methoxy-phenyl)-1-methyl-imidazole-2-carboxamide;formic acid] | 79
10 | COc1ccc(-c2cnc(C(=O)Nc3ccc(C(=O)NC4CCN(C(=O)[C@@H]5CCNC5)CC4)c(Cl)c3)n2C)c(F)c1F [Example B6, N-[3-chloro-4-[[1-[(3R)-pyrrolidine-3-carbonyl]-4-piperidyl]carbamoyl]phenyl]-5-(2,3-difluoro-4-methoxy-phenyl)-1-methyl-imidazole-2-carboxamide;formic acid] | 100
11 | COc1ccc(-c2cnc(C(=O)Nc3ccc(C(=O)NC4CCN(C(=O)[C@@H]5C[C@@H](O)CN5)CC4)c(Cl)c3)n2C)c(F)c1F [Example B7, N-[3-chloro-4-[[1-[(2S,4R)-4-hydroxypyrrolidine-2-carbonyl]-4-piperidyl]carbamoyl]phenyl]-5-(2,3-difluoro-4-methoxy-phenyl)-1-methyl-imidazole-2-carboxamide] | 82
12 | COc1ccc(-c2cnc(C(=O)Nc3ccc(C(=O)NC4CCN(C(=O)CCOCCN)CC4)c(Cl)c3)n2C)c(F)c1F [Example B8, N-[4-[[1-[3-(2-aminoethoxy)propanoyl]-4-piperidyl]carbamoyl]-3-chloro-phenyl]-5-(2,3-difluoro-4-methoxy-phenyl)-1-methyl-imidazole-2-carboxamide;formic acid] | 140

Other lines, results leading:

Row | IC90 [nM] | SMILES
13 | 210 | COc1ccc(-c2cnc(C(=O)Nc3ccc(C(=O)N[C@H]4C[C@@H](NC(=O)C5CC(CN)C5)C4)c(Cl)c3)n2C)c(F)c1F (stereo partly drawn) [Example B9, N-[4-[[3-[[3-(aminomethyl)cyclobutanecarbonyl]amino]cyclobutyl]carbamoyl]-3-chloro-phenyl]-5-(2,3-difluoro-4-methoxy-phenyl)-1-methyl-imidazole-2-carboxamide;formic acid]
14 | 140 | Cn1c(-c2ccc(OC(F)F)c(F)c2F)cnc1C(=O)Nc1ccc(C(=O)NCCC2CN(C(=O)CCN)C2)c(Cl)c1 [Example B10, N-[4-[2-[1-(3-aminopropanoyl)azetidin-3-yl]ethylcarbamoyl]-3-chloro-phenyl]-5-[4-(difluoromethoxy)-2,3-difluoro-phenyl]-1-methyl-imidazole-2-carboxamide;2,2,2-trifluoroacetic acid]
15 | 230 | Cn1c(-c2ccc(OC(F)F)c(F)c2F)cnc1C(=O)Nc1ccc(C(=O)NCCCNC(=O)CCN)c(Cl)c1 [Example B11, N-[4-[3-(3-aminopropanoylamino)propylcarbamoyl]-3-chloro-phenyl]-5-[4-(difluoromethoxy)-2,3-difluoro-phenyl]-1-methyl-imidazole-2-carboxamide;2,2,2-trifluoroacetic acid]
16 | 760 | CCc1cc(NC(=O)c2ncc(-c3ccc(OC(F)F)c(F)c3F)n2C)ccc1C(=O)NCCCNC(=O)C1CCNCC1 [Example B12, N-[3-[[4-[[5-[4-(difluoromethoxy)-2,3-difluoro-phenyl]-1-methyl-imidazole-2-carbonyl]amino]-2-ethyl-benzoyl]amino]propyl]piperidine-4-carboxamide;formic acid]
17 | 910 | Cc1cc(NC(=O)c2ncc(-c3ccc(OCC#N)c(F)c3F)n2C)ccc1C(=O)NCCNC(=O)C1CCNCC1 [Example B13, N-[2-[[4-[[5-[4-(cyanomethoxy)-2,3-difluoro-phenyl]-1-methyl-imidazole-2-carbonyl]amino]-2-methyl-benzoyl]amino]ethyl]piperidine-4-carboxamide;formic acid]
18 | 990 | Cc1cc(NC(=O)c2ncc(-c3ccc(OCC#N)c(F)c3F)n2C)ccc1C(=O)NCCNC(=O)C1(O)CCNCC1 [Example B14, N-[2-[[4-[[5-[4-(cyanomethoxy)-2,3-difluoro-phenyl]-1-methyl-imidazole-2-carbonyl]amino]-2-methyl-benzoyl]amino]ethyl]-4-hydroxy-piperidine-4-carboxamide;formic acid]
